Source: patent publication US20260216134A1, “CHARGED PI-CONJUGATED MOLECULES FOR THE TREATMENT OF MICROBIAL INFECTIONS” (priority 2023, published 2026)
Entries after “also recorded” stand apart in the source; their conditions may differ.

Tests used:
MRSA USA300 = assay: Therapeutic index calculation (IC50 of mammalian cell lines / MIC); conditions: ratio of average IC50 for A549 and HEK293 to MIC in MRSA USA300
Experimental: The biocompatibility of charged pi-conjugated compounds with mammalian cell lines was evaluated by studying the effects of different charged pi-conjugated compound concentrations on the viability of two mammalian cell lines: A549 (epithelial-like lung cells) and HEK293 (epithelial-like kidney cells). […] Dose-response curves were used to determine IC50 values, that is, the concentration of charged pi-conjugated compound needed to inhibit cell viability by 50%. […] The MIC of MRSA USA300 was used to calculate the therapeutic index. MRSA USA300 is a major contributor to community-associated MRSA infections, including skin and soft tissue infections, bacteraemia, endocarditis, bone and joint infections and nosocomial infections. […]
The biocompatibility of charged pi-conjugated compounds with mammalian cell lines was assessed by determining their impact on the mitochondrial activity of human alveolar basal epithelial adenocarcinoma cells (A549) and human embryonic kidney cells (HEK293T) cells, using the Presto Blue assay according to the manufacturer's protocol. […] After 8 h, Presto Blue cell viability reagent (Thermo Fisher Scientific, Waltham, MA, USA) was added to the cells, and after 2 h of incubation, fluorescence was measured using a microplate reader (BioTek Instruments Inc., Winooski, VT, USA). […] The therapeutic index was calculated from the ratio between IC50 and the MIC.

[1] = tested on: A375 cancer cells (melanoma); assay: Crystal violet cytotoxicity test in A375 cells without light activation; type: cell-based, human
Experimental: The inhibitory concentration of charged pi-conjugated compounds needed to inhibit the cell growth by 50% (toxicity IC50).
Most of the charged pi-conjugated compounds are aminocyanines which are functionalized with alkyl amine group. The charged pi-conjugated compounds were added to cell cultures of A375 cancer cells (human melanoma) and their cytotoxicity was quantified by the crystal violet test and/or clonogenic assays for cell viability. […] The longer the exposure the most cytotoxic the charged pi-conjugated compounds are towards A375 cells. […] The same behavior is observed: the longer the exposure, the more cytotoxic. All molecules presented here are aminocyanines except GL-261-2 which is a carboxyl-cyanine. […] This was the first time a therapeutic window of concentration that can be tuned to selectively kill cancer and/or protect cells was suspected. In finding this therapeutic window concentration and time of exposure are important variables that should be fine tuned.
Based on the finding described above, a larger set of charged pi-conjugated compounds was evaluated for cytotoxicity against A375 cancer cells as shown in FIG. 25 and FIG. 26.
The IC50 is the concentration needed to inhibit the cell viability by 50%. These molecules in FIG. 25 and FIG. 26 were evaluated by crystal violet assay and using 2 days of exposure.

A375 tumors = assay: Intratumoral injection into A375 tumors in mice; type: in vivo
Experimental: Cy7.5-amine was intratumorally injected at the dose of 8 μg (equivalent to 50 μL of 200 μM Cy7.5-amine solution in PBS containing 2.5% DMSO. As control 50 μL of 2.5% DMSO in PBS solution was injected intratumorally. The blue dots indicate the days when the tumors were treated.
Then we applied Cy7.5-amine (FIG. 22C) by intratumoral injection into A375 tumors as described in FIG. 33.

C[N+]1=C(/C=C/C2=CC(=C/C=C3/N(CCCCCC(=O)NCCCCCCN)c4ccc5ccccc5c4C3(C)C)/CCC2)C(C)(C)c2c1ccc1ccccc21.Cl.[Cl-] [Cy7.5-amine, Cyanine 7.5-amine]
therapeutic index (MRSA USA300): 1.3 | IC50 [1]: 0.5 µM | cytotoxicity at short exposure [1]: safe and showed low cytotoxicity | mice free of cancer (A375 tumors; after 7 months of the study): 2 out of 10 | loss of A375 tumors (A375 tumors; intratumoral 8 μg (50 μL of 200 μM), n=10 mice): 20% | toxicity to the mice (body weight relative to control) (A375 tumors; intratumoral 200 μM, control 2.5% DMSO): no sign of toxicity; also recorded: does not cause change of the mice body weight
